Reference: patent US12202840B2, “Compounds for the treatment or alleviation of disorders associated with Tau aggregates” (AC Immune SA, priority 2018, dated 2025)

Test system: rTg4510 mice
Assay: Morris Water Maze behavioral test, study of Example 2
Assay type: in vivo
Details: once daily by gavage, 7 and 20 mg/kg, statistical significance at 20 mg/kg, FIG. 4
Experimental: Double transgenic rTg4510 mice are an aggressive Tauopathy model expressing the full-length human Tau carrying the P301L mutation (Tau4R0N-P301L) under the control of the tetracycline-inducible CaMKII promoter (Ramsden et al., 2005). Wild-type animals and single transgenic mice expressing only the tetracycline-controlled transactivator (tTA) were used as genotype controls. Mice were treated and tested. The study comprised 4 treatment groups (n=15 female mice/group) with the following group distribution (see Table 6). Compound of the invention or vehicle control were administered once daily by gavage for 12 weeks starting at the age of 5.5 weeks. The Morris Water Maze (MWM) behavioral test was performed after 12.5 weeks of treatment over 5 consecutive days. During MWM testing daily dosing was continued. Behavioral testing (MWM) and biochemical quantification of sarkosyl-insoluble Tau were performed on all mice (n=15 mice/group). […]
The MWM was performed in a circular tank, measuring 48″ in diameter. […] Trials were video recorded and analyzed by a computer program (WaterMaze; Actimetrics, Wilmette, Ill.). […] Percent crossing in each quadrant (target, left and right adjacent, and opposite) was calculated for probe trials. Data were analyzed by 2-way ANOVA followed by post-hoc comparisons and shown statistics refers to differences compared to vehicle treated rTg4510 mice.

## CN(C)[C@@H]1CCc2c(c3ccc(Nc4ccc5sc(N6CCOCC6)nc5c4)nc3n2C)C1 [Example 2]
  percentage of platform crossings in the target compared to the opposite quadrant (MWM probe trial): dose-dependent increase
